Experimental findings from patent US20090298814A1, “Novel salts of conjugated psychotropic drugs and processes of preparing same” (RAMOT AT TEL AVIV UNIVERISTY LTD, priority 2005, published 2009) are described below.

Assay type in all cases: physicochemical
Data set [1] is described as follows: Water content of AN-168 by Karl Fischer (KF) titration. The protocol:
(§1) Water absorption and content measurements were carried out using a Karl Fischer (KF) titrator. Karl Fischer titration is a classic method in analytical chemistry that uses calometric titration to determine the moisture content of a sample, which is specific to water. The titration reaction taking place in the presence of a base and 50:50 methanol:dichloromethane as a titration solvent.
The Karl Fischer chemical reaction takes place between iodine and water with the reactants being in a 1 to 1 ratio between iodine and water.
(§2) The accurately weighted samples (near 100 mg) of the tested compound were placed in the titrator to determine the amount of sample required for measuring 10-250 μg of water, and the water content was calculated accordingly.

A short description of data set [2]: Stability of AN-168 dry salt by HPLC at 5, 20 and 40° C. The protocol:
(§3) HPLC analyses were performed on a Water 2695 Separations Module, using a Luna C18 (2) 50 mm×4.6 mm×3 um column, a 5 μl injection volume and a 2487 dual wavelength detector under the following instrumental conditions: Mobile phase A: 0.1% formic acid; Mobile phase B: acetonitrile; Flow rate: 0.5 ml per minute; Mobile phase gradient: 0.0 minutes 90% A, 10% B, 14.0 minutes 20% A, 80% B, 15.0 minutes 90% A, 10% B and 20.0 minutes 90% A, 10% B; Run time: 20 minutes; Detection: UV at 254 nm; Column temperature: 40° C.
To determine the stability of the HCl salt of the GABA conjugate (AN-168), prepared according to the procedure described in Example 2 above, three samples of the salt were studied by HPLC analyses. Thus, samples of AN-168 as dry salt were kept at 5° C., 20° C. and 40° C. over a period of 24 day and were analyzed by HPLC for determining the appearance of degradation products.

Data set [3] in a line: Chemical stability of the oxalate salt by HPLC, open container. As to conditions: for perphenazine content (HPLC) / purity of the salt (HPLC): open container at room temperature. The protocol: as §3
(§4) A sample of the oxalate addition salt was kept in an open container at room temperature for a five-week period (about 840 hours) and analyzed thereafter. The hygroscopicity of the oxalate salt was determined by following the water content of the salt using the Karl Fischer (KF) titration analysis method and the chemical stability of the oxalate salt was determined by following the appearance of the degradation product perphenazine in HPLC analysis.

A short description of data set [4]: Hygroscopicity of the oxalate salt by Karl Fischer titration. Conditions: open container at room temperature. The protocol:
as §1, §2, §4

A short description of data set [5]: Stability of the 1-napsylate salt. As to conditions: two weeks.
A short description of data set [6]: Stability of the free base of the conjugate by HPLC at 20 and 40° C. Here is the method: as §3
The stability of neat free base of the chemical conjugate was determined by performing an HPLC analysis daily during a period of 24 days and determining the appearance of its degradation products perphenazine and GABA. Samples of the neat free base of the conjugate were collected after deprotection of AN-197 with TFA, as described in the preparation of the maleate and oxalate salts, using the general procedure described above in Example 9, were dissolved in the mobile phase solution which was used in the HPLC analysis (2:1 acetonitrile:water, pH 8) and were kept to either at 20° C. or at 40° C.

[7] abbreviates: dry salt kept at 5° C., 0 hours.
The mark [8] stands for this setting: dry salt kept at 5° C., 24 hours.
Where [9] appears, read: dry salt kept at 5° C., 48 hours.
Setting [10] is: dry salt kept at 5° C., 120 hours.
The mark [11] stands for this setting: dry salt kept at 5° C., 144 hours.
Where [12] appears, read: dry salt kept at 5° C., 336 hours.
[13] abbreviates: dry salt kept at 5° C., 456 hours.
Setting [14] is: dry salt kept at 5° C., 504 hours.
[15] abbreviates: dry salt kept at 5° C., 576 hours.
Where [16] appears, read: dry salt kept at 20° C., 0 hours.
Setting [17] is: dry salt kept at 20° C., 24 hours.
The mark [18] stands for this setting: dry salt kept at 20° C., 48 hours.
The mark [19] stands for this setting: dry salt kept at 20° C., 120 hours.
The mark [20] stands for this setting: dry salt kept at 20° C., 144 hours.
[21] abbreviates: dry salt kept at 20° C., 336 hours.
The mark [22] stands for this setting: dry salt kept at 20° C., 456 hours.
Where [23] appears, read: dry salt kept at 20° C., 504 hours.
[24] abbreviates: dry salt kept at 20° C., 576 hours.
[25] abbreviates: dry salt kept at 40° C., 0 hours.
Where [26] appears, read: dry salt kept at 40° C., 24 hours.
Where [27] appears, read: dry salt kept at 40° C., 48 hours.
The mark [28] stands for this setting: dry salt kept at 40° C., 120 hours.
[29] abbreviates: dry salt kept at 40° C., 144 hours.
[30] abbreviates: dry salt kept at 40° C., 336 hours.
The mark [31] stands for this setting: dry salt kept at 40° C., 456 hours.
Where [32] appears, read: dry salt kept at 40° C., 504 hours.
Setting [33] is: dry salt kept at 40° C., 576 hours.
Setting [34] is: end of five-week period (about 840 hours).
The mark [35] stands for this setting: sealed and open container at room temperature.
Where [36] appears, read: in HPLC mobile phase (2:1 acetonitrile:water, pH 8), kept at 20° C., 0 hours.
Setting [37] is: in HPLC mobile phase (2:1 acetonitrile:water, pH 8), kept at 40° C., 0 hours.
The mark [38] stands for this setting: in HPLC mobile phase, kept at 20° C., 24 hours.
Setting [39] is: in HPLC mobile phase, kept at 20° C., 168 hours.
Setting [40] is: in HPLC mobile phase, kept at 20° C., 336 hours.
Setting [41] is: in HPLC mobile phase, kept at 20° C., 504 hours.
The mark [42] stands for this setting: in HPLC mobile phase, kept at 20° C., 576 hours.
The mark [43] stands for this setting: in HPLC mobile phase, kept at 40° C., 24 hours.
[44] abbreviates: in HPLC mobile phase, kept at 40° C., 168 hours.
Setting [45] is: in HPLC mobile phase, kept at 40° C., 336 hours.
[46] abbreviates: in HPLC mobile phase, kept at 40° C., 504 hours.
The mark [47] stands for this setting: in HPLC mobile phase, kept at 40° C., 576 hours.

As to `Cl.NCCCC(=O)OCCN1CCN(CCCN2c3ccccc3Sc3ccc(Cl)cc32)CC1` [AN-168, Perphenazine 4-Aminobutyrate Hydrochloride], the hygroscopicity result in data set [1] (final product) is given as “hygroscopic”. The “water content (KF)” value in data set [1] (final product, recrystallized) is given as 1.05 % weight/weight; in data set [1] (repeated procedure with additional 2 hours at 40° C.), 12.5 % weight/weight. In addition, the AN-168 % area in data set [2] (setting [7]) is 98.64 % area; in data set [2] (setting [8]), 98.57 % area; in data set [2] (setting [9]), 98.52 % area; in data set [2] (setting [10]), 98.40 % area; in data set [2] (setting [11]), 98.13 % area; in data set [2] (setting [12]) it was 97.21 % area. Moreover, the AN-168 % area in data set [2] (setting [13]) came to 97.95 % area; in data set [2] (setting [14]), 97.15 % area; in data set [2] (setting [15]), 96.14 % area; in data set [2] (setting [16]), 98.64 % area; in data set [2] (setting [17]) it was 98.42 % area; in data set [2] (setting [18]), 98.31 % area. Moreover, the AN-168 % area in data set [2] (setting [19]) was 97.68 % area; in data set [2] (setting [20]), 97.26 % area; in data set [2] (setting [21]) it was 96.26 % area; in data set [2] (setting [22]), 95.58 % area; in data set [2] (setting [23]) it was 94.60 % area; in data set [2] (setting [24]), 93.80 % area. Further, the AN-168 % area in data set [2] (setting [25]) is listed as 98.64 % area; in data set [2] (setting [26]) it was 97.97 % area; in data set [2] (setting [27]) it was 97.70 % area; in data set [2] (setting [28]), 96.95 % area; in data set [2] (setting [29]) it was 97.03 % area; in data set [2] (setting [30]) it was 96.69 % area. Besides, the AN-168 % area in data set [2] (setting [31]) stood at 95.55 % area; in data set [2] (setting [32]), 95.62 % area; in data set [2] (setting [33]), 95.55 % area. Also, the Perphenazine % area in data set [2] (setting [7]) was found to be 1.36 % area; in data set [2] (setting [8]), 1.43 % area; in data set [2] (setting [9]) it was 1.48 % area; in data set [2] (setting [10]) it was 1.60 % area; in data set [2] (setting [11]), 1.87 % area; in data set [2] (setting [12]) it was 2.03 % area. For the same compound, the Perphenazine % area in data set [2] (setting [13]) was found to be 2.05 % area; in data set [2] (setting [14]), 2.85 % area; in data set [2] (setting [15]), 3.49 % area; in data set [2] (setting [16]), 1.36 % area; in data set [2] (setting [17]) it was 1.58 % area; in data set [2] (setting [18]), 1.69 % area. For the same compound, the Perphenazine % area is 2.32 % area in data set [2] (setting [19]); 2.74 % area in data set [2] (setting [20]); 3.74 % area in data set [2] (setting [21]); 4.51 % area in data set [2] (setting [22]); 5.40 % area in data set [2] (setting [23]); 5.87 % area in data set [2] (setting [24]). In addition, the Perphenazine % area in data set [2] (setting [25]) is 1.36 % area; in data set [2] (setting [26]), 2.03 % area; in data set [2] (setting [27]), 2.30 % area; in data set [2] (setting [28]) it was 3.05 % area; in data set [2] (setting [29]) it was 2.97 % area; in data set [2] (setting [30]), 3.31 % area. Moreover, the Perphenazine % area in data set [2] (setting [31]) stood at 4.45 % area; in data set [2] (setting [32]), 3.92 % area; in data set [2] (setting [33]) it was 4.06 % area. The stability in words result in data set [2] (over time, at each of the tested temperatures (5, 20, 40° C.)) is “degraded into perphenazine and GABA and/or underwent trans-esterification to perphenazine and 2-pyrrolidinone”.

Turning to `NCCCC(=O)OCCN1CCN(CCCN2c3ccccc3Sc3ccc(Cl)cc32)CC1.O=C(O)C(=O)O.O=C(O)C(=O)O.O=C(O)C(=O)O` [oxalate addition salt], the “stability and hygroscopicity in words” value in data set [3] (as compared to the HCl salt (AN-168)) was “more stable and less hygroscopic”. For the same compound, the entries for the “perphenazine content (HPLC)” value in data set [3] (setting [34]) and in data set [3] (initial) were 1.71% and 0.75%, respectively. Moreover, the entries for the “purity of the salt (HPLC)” value in data set [3] (setting [34]) and in data set [3] (initial) were 94.61% and 98.05%, respectively. Also, the “water content (KF)” value was 1.90 weight percents in data set [4] (setting [34]) and 1.36 weight percents in data set [4] (initial).

In the case of `NCCCC(=O)OCCN1CCN(CCCN2c3ccccc3Sc3ccc(Cl)cc32)CC1.O=S(=O)(O)c1cccc2ccccc12.O=S(=O)(O)c1cccc2ccccc12.O=S(=O)(O)c1cccc2ccccc12` [1-napsylate salt], the degradation to perphenazine result in data set [5] (setting [35]) was “minimal degradation”. Moreover, the stability in words result in data set [5] (setting [35]) was “stable”; in data set [5] (stored at both −20° C. and 0° C. under nitrogen in a closed container) it was “highly stable”.

Consider `NCCCC(=O)OCCN1CCN(CCCN2c3ccccc3Sc3ccc(Cl)cc32)CC1` [Free base], for which the stability in words entry in data set [6] (at both temperatures (20° C. and 40° C.)) is listed as “highly unstable”. Moreover, the “relative peak area degradation to perphenazine” value in data set [6] (first 24 hours, sample kept at 20° C.) was “approximately 5%”. Further, the “free base degraded to perphenazine” value in data set [6] (first 24 hours, sample kept at 40° C.) is reported as “more than 20%”. The “Free base % area” value is 98.50 % area in data set [6] (setting [36]); 98.50 % area in data set [6] (setting [37]); 95.05 % area in data set [6] (setting [38]); 74.71 % area in data set [6] (setting [39]); 61.63 % area in data set [6] (setting [40]); 53.35 % area in data set [6] (setting [41]). In addition, the “Free base % area” value in data set [6] (setting [42]) is on record as 47.23 % area; in data set [6] (setting [43]), 78.74 % area; in data set [6] (setting [44]), 20.09 % area; in data set [6] (setting [45]), 6.12 % area; in data set [6] (setting [46]), 5.52 % area; in data set [6] (setting [47]) it was 3.93 % area. The Perphenazine % area in data set [6] (setting [36]) worked out at 1.50 % area; in data set [6] (setting [37]) it was 1.50 % area; in data set [6] (setting [38]), 4.95 % area; in data set [6] (setting [39]) it was 25.29 % area; in data set [6] (setting [40]), 38.37 % area; in data set [6] (setting [41]) it was 46.65 % area. Moreover, the Perphenazine % area is 52.77 % area in data set [6] (setting [42]); 21.26 % area in data set [6] (setting [43]); 79.91 % area in data set [6] (setting [44]); 93.88 % area in data set [6] (setting [45]); 94.48 % area in data set [6] (setting [46]); 96.07 % area in data set [6] (setting [47]).
